Tests used:
Type in all cases: cell-based
Details in all cases: sgRNA in GFP-negative cell population, day 14 after transfection of EPIREG
[1] = tested on: type D HBV surface antigen (HBsAg) reporter cell line; test: sgRNA lentiviral library screening, HBsAg reporter cell line (NGS reads in GFP-negative cells)
Description: (§1) In this example, the type D HBV X protein (HBx), core antigen (HBcAg), and surface antigen (HBsAg) reporter cell lines were used for library screening. First, a sgRNA cell library of type D HBV gene was constructed using a reporter cell line according to the method described in example 1. The sgRNA library was packaged into lentivirus to obtain a sgRNA lentiviral library (carrying red fluorescence), the reporter cell line was infected with the lentiviral library, and the red fluorescence was sorted to obtain the sgRNA cell library. Each cell in this sorted cell library integrated a single sgRNA in the library while the cell itself carried a reporter sequence (carrying green fluorescence). The EPIREG tool described in example 2 (the amino acid sequence of the tool was SEQ ID NO: 1194) (carrying blue fluorescence) was transfected and delivered into a cell library carrying both sgRNA and reporter sequences. Red/green/blue fluorescent triple-positive cells were sorted using a flow cytometer and cultured long-term. The EPIREG transfected into the cells could work together with the sgRNA to silence GFP in the reporter. On the day 14 after transfection, the GFP-negative cell population in the cell library was sorted, the genomic DNA of the negative cell population was extracted for NGS sequencing. The sgRNAs with higher sequencing reads in the negative cell population were compared using the untreated cell library as a control reference, so as to obtain the candidate sgRNAs that could play an editing role corresponding to each reporter, respectively (the schematic diagram of this screening scheme is shown in FIG. 6, and the analysis method is referenced to the literature DOI: 10.1186/s13059-014-0554-4). The functionally validated sgRNAs for each reporter cell line are summarized in the following table (arranged by the starting position of the target sequence of each sgRNA).

[2] = tested on: type D HBV core antigen (HBcAg) reporter cell line; test: sgRNA lentiviral library screening, HBcAg reporter cell line (NGS reads in GFP-negative cells)
Description: as §1

[3] = tested on: type D HBV X protein (HBx) reporter cell line; test: sgRNA lentiviral library screening, HBx reporter cell line (NGS reads in GFP-negative cells)
Description: as §1

Substance | Log2 FC [1] | Log2 FC [2] | Log2 FC [3]
1072 (guide TGTAGTATGCCCTGAGCCTG; listed as DNA, chemistry not fully specified) [compound 1072] | 1.1325 | – | –
1025 (guide TGCCCAAGGTCTTACATAAG; listed as DNA, chemistry not fully specified) [compound 1025] | 1.4524 | 2.0852 | –
839 (guide GTCTTACATAAGAGGACTCT; listed as DNA, chemistry not fully specified) [compound 839] | 1.3376 | – | –
1084 (guide TTAAAGGTCTTTGTACTAGG; listed as DNA, chemistry not fully specified) [compound 1084] | 1.0831 | – | –
27 (guide AACAAGAGATGATTAGGCAG; listed as DNA, chemistry not fully specified) [compound 27] | 1.3821 | – | –
62 (guide AATGTCAACGACCGACCTTG; listed as DNA, chemistry not fully specified) [compound 62] | 1.5364 | 2.2035 | –
829 (guide GTCCTCTTATGTAAGACCTT; listed as DNA, chemistry not fully specified) [compound 829] | 0.9029 | – | –
215 (guide AGTCTTTGAAGTATGCCTCA; listed as DNA, chemistry not fully specified) [compound 215] | 1.3799 | 2.1589 | –
161 (guide AGATTAAAGGTCTTTGTACT; listed as DNA, chemistry not fully specified) [compound 161] | 1.8238 | 2.5156 | –
593 (guide GAATCCCAGAGGATTGCTGG; listed as DNA, chemistry not fully specified) [compound 593] | 0.9124 | – | –
598 (guide GACATGAACAAGAGATGATT; listed as DNA, chemistry not fully specified) [compound 598] | 1.4722 | 4.6761 | –
270 (guide ATTTGCTGTGTTTGCTCTGA; listed as DNA, chemistry not fully specified) [compound 270] | 1.397 | – | –
145 (guide AGACTGGGAGGAGTTGGGGG; listed as DNA, chemistry not fully specified) [compound 145] | 1.8314 | 3.5473 | –
112 (guide ACCTTTGGATAAAACCTAGC; listed as DNA, chemistry not fully specified) [compound 112] | 1.203 | – | –
227 (guide ATAGAGTATTTGGTGTCTTT; listed as DNA, chemistry not fully specified) [compound 227] | 0.9275 | – | –
121 (guide ACTACTGTTGTTAGACGACG; listed as DNA, chemistry not fully specified) [compound 121] | 1.0553 | – | –
242 (guide ATCCTGCGGACGACCCTTCT; listed as DNA, chemistry not fully specified) [compound 242] | 0.8809 | – | –
671 (guide GCAGCACAGCCTAGCAGCCA; listed as DNA, chemistry not fully specified) [compound 671] | 1.2918 | – | –
591 (guide GAAGCGAAGTGCACACGGTC; listed as DNA, chemistry not fully specified) [compound 591] | – | 4.4134 | 5.7107
410 (guide CCCGTTGCCCGGCAACGGCC; listed as DNA, chemistry not fully specified) [compound 410] | 1.9735 | – | –

Source: patent US20260097133A1, “EPIGENETIC EDITING TOOL FOR TARGETING HEPATITIS B VIRUS GENE” (priority 2023, published 2026)
